According to ChEMBL document CHEMBL1143234, “Uncovering false positives on a virtual screening search for cruzain inhibitors” (Bioorg Med Chem Lett, 2008):
Activity calls are given as the source filed them. The rule behind the calls is not given here.

What was measured:
[1] = molecular target: Cruzipain (Trypanosoma cruzi) (UniProt P25779); assay: Inhibition of Trypanosoma cruzi cruzain
[2] = molecular target: Cruzipain (Trypanosoma cruzi) (UniProt P25779); assay: Inhibition of Trypanosoma cruzi cruzain upto 7.22 mM
[3] = molecular target: Cruzipain (Trypanosoma cruzi) (UniProt P25779); assay: Inhibition of Trypanosoma cruzi cruzain upto 38.71 mM
[4] = molecular target: Cruzipain (Trypanosoma cruzi) (UniProt P25779); assay: Inhibition of Trypanosoma cruzi cruzain upto 0.67 mM

Cruzipain (Trypanosoma cruzi), sequence (P25779 123-467 limits assumed): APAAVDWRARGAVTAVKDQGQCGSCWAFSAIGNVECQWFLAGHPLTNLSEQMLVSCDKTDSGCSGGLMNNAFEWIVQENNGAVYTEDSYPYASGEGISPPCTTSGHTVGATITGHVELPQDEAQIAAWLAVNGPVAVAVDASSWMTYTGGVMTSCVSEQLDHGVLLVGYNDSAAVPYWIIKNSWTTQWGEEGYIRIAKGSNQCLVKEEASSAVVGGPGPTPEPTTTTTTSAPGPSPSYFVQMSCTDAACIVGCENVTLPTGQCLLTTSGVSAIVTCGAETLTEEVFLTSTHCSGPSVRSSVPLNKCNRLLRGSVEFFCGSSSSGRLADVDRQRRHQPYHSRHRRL

| Activity [1] [µM] | SMILES | further results |
| --- | --- | --- |
| 17.3 | N#Cc1ccccc1NC(=O)C(=O)Nc1ccccc1C#N |  |
| 4.17 | N#Cc1c(NC(=O)CC(NC(=O)c2ccccc2Cl)c2ccccc2)sc2c1CCCC2 (stereo unspecified) |  |
|  | N#CC1(NC(=O)c2cc3ccccc3oc2=O)CCCCC1 | Activity [2]: inactive |
| 44.9 | O=C(/C=C/c1cccs1)NC(Cc1ccccc1)c1nc2ccccc2[nH]1 (stereo unspecified) |  |
|  | N#Cc1ccsc1NC(=O)/C=C/c1cccc(Cl)c1 | Activity [3]: inactive |
|  | O=C(NC(Cc1c[nH]c2ccccc12)C(=O)N/N=C1\CCCN1)c1cccs1 (stereo unspecified) | Activity [4]: inactive |
